Reference: PMC10119930, “Dual Molecules Targeting 5-HT6 and GABA-A Receptors as a New Approach to Combat Depression Associated with Neuroinflammation” (ACS Chemical Neuroscience, 2023)
Blank lines part the entries; values can stand above or below the molecule they belong to.

Assays:
female Wistar rats [1] = test: Forced swim test in rats; assay type: in vivo, rat; settings: acute, ip 30 min before test
Procedure: Naïve female Wistar rats (weighing 180–200 g) were used in the study. The animals were housed in groups of three to four in standard Makrolon cages (37 cm × 21 cm × 15 cm) under strictly controlled laboratory conditions (ambient temperature 21–24 °C, relative humidity 45–65%) with a 12/12 h light–dark regime (light on at 6:00 a.m. and off at 6:00 p.m.). Animals had unrestricted access to tap water and food (typical pellets). Prior the experiment the animals were randomly appointed to the group. The behavioral studies were accomplished between 8:00 a.m. and 5:00 p.m. with the researcher blind to the study. The experiments were performed according to protocols approved by the Local Ethical Committee in Krakow (Approval Number 147/2018), Poland. Housing and experimental procedures were conducted under the European Union Directive of September 22, 2010 (2010/63/EU) and Polish legislation regarding animal studies. All efforts were made to minimize animal suffering and the number of animals used in the study.
Vortioxetine (Sigma, Germany) and the tested compounds (16 and 6) were dissolved in 10% cyclodextrin and administered ip 30 min before the test or during 14 consecutive days, with the last injection 60 min before the test. 10% cyclodextrin was administrated to control group.
A modified forced swim test was carried out according to Detke et al.[50],[51] First, the animals were individually placed inside Plexiglas cylinders, which were 40 cm high and 18 cm in diameter, filled with water at a temperature of 23–25 °C for 15 min. Afterward, the rats were transferred to a Plexiglas box and kept under a 60 W bulb for 30 min to dry. The day after, exactly 24 h later, the rats were once again placed in the cylinder, and their duration of immobility, swimming, and climbing was observed and recorded during a 5 min. The swimming behavior involved energetic movements such as horizontal swimming around the cylinder, while climbing activity referred to upward movements of the forepaws along the swim chamber’s side. Immobility was recorded when the rat only made necessary movements to keep its head above the water. For each test, a fresh water was provided. Open field test in rats: The test was conducted as previously reported by our research group.[52] The test was performed in a darkened room employing the Motor Monitor System (Campden Instruments, Ltd., U.K.). The system was equipped with two SmartFrame Open Field stations, each measuring 40 cm × 40 cm × 38 cm and consisting of 16 × 16 beams. These stations were placed inside sound-attenuating chambers and connected to a PC software using […]. The animals, belonging to either the vehicle-injected or drug-injected group, were individually positioned at the center of the station. The Motor Monitor System, which was automated, recorded the animal’s ambulation in both the X and Y axes, as well as the number of rearing and peeping episodes. Additionally, the total distance traveled by each animal during the 5 min test period was also recorded. Statistical analysis: Results are presented as the mean ± SEM values. They were estimated using one-way analysis of variance (ANOVA), followed by Newman–Keuls post hoc or unpaired two-tailed Student t test. Statistical significance was considered when p < 0.05 for differences between groups.

BV-2 microglia cells [2] = test: Evaluation of microglia morphology by fluorescence microscopy (MitoTracker) after LPS; assay type: cell-based, mouse; settings: 10 μM pretreatment 1 h, LPS 18 h
BV-2 microglia cells [3] = test: Anti-inflammatory assessment in LPS-stimulated BV-2 cells (NO, ROS, IL-6, TNF-α); assay type: cell-based, mouse; settings: 10 μM pretreatment 1 h, then LPS 18 h
Procedure: Mouse microglial (BV-2) cell line was a generous gift from Prof. Bożena Kamińska-Kaczmarek of the Nencki Institute of Experimental Biology, Polish Academy of Sciences, Warsaw, Poland. The cell culture medium: Dulbecco’s modified with high glucose (DMEM, Glutamx ThermoFisher) and supplemented with 10% inactivated fetal bovine serum heat (ThermoFisher), 100 IU/mL penicillin (Merck) and 100 μg/mL streptomycin (Merck). Cell culture conditions: culture flasks (area 175 cm^2, Nunc), temperature of 37 °C, 5% CO2. For the assessment of the effect of tested compounds on the quantities of reactive oxygen species, nitric oxide, and inflammatory markers, the BV-2 cells were positioned in a 96-well culture plate (5 × 10^4 cells per well, Falcon). In the case of cell membrane damage assay, a 96-well culture plate (2 × 10^4 cells per well, Falcon) was used. The cells were cultured in the incubator (37 °C, 5% CO2) for 24 h prior to the assay. The tested compounds were dissolved in DMSO to achieve the concentration of 10^–2 M. Serial dilutions of the compounds were prepared in PBS and added directly to the medium containing adherent cells. The resulting mixtures were examined for any evidence of precipitation or opalescence before the assay. BV-2 cells were incubated with selected molecules (6, 16 at a concentration of 10 μM) during 1 h. Subsequently, lipopolysaccharide (100 ng/mL) was added and the resulting mixture was incubated for 18 h. Next, the culture supernatant was collected to measure the levels of nitric oxide (NO), reactive oxygen species (ROS), IL-6, and TNF-α according to the procedures described in detail below. All experiments were performed in duplicates, in three independent experiments.
The quantities of NO produced by the cells were determined using DAN reagent (2,3-diaminonaphthalene), rendering the method protocol described by Nussler et al.[48] After incubating at room temperature for 15 min, the fluorescence intensity (EX 360; EM 440 nm) was measured using a microplate reader POLARstar Omega from BMG Labtech. The amounts of NO were then calculated as a percentage of the control (which represents the maximal response of LPS). ROS measurement. The fluorescent dye 2,7-dichlorodihydrofluorescein diacetate (DCFH-DA)[49] was utilized to determine the quantity of ROS released by BV-2 cells. After a 30 min incubation period at 37 °C with 10 μM DCFH-DA, the fluorescence intensity (EX 490; EM 520 nm) was examined using a microplate reader POLARstar Omega from BMG Labtech. The amounts of ROS were then expressed as a percentage of the control (which represents the maximal response of LPS). The IL-6 and TNF-α levels detected in the culture supernatants were quantified using LANCE Ultra TR-FRET detection kit (PerkinElmer), rendering the manufacturer’s procedure. The detection of IL-6 and TNF-α was performed independently in a 384-well plate according to the instructions provided. To each well of the plate, 15 μL of sample was added followed by the addition of 5 μL of premixed antibody solution. After incubating IL-6 for 1 h and TNF-α for 3 h in the absence of light, at 22 °C, the plates were transferred to an EnVision plate reader (PerkinElmer). Measurements were conducted at 320 nm wavelength for excitation, at 615 nm for donor emission, and at 660 nm for acceptor emission. The final data were determined as the ratio of the 660 nm signal to the 615 nm signal. The results represent the levels of each cytokine determined as a percentage of control (considered as maximal cell response to LPS). The GraphPad program was used to conduct statistical analysis, with all outcomes presented as mean values with standard deviation (SD). Differences between groups were assessed using one-way ANOVA, followed by post hoc analysis (Dunnett’s multiple comparison tests). Results were considered statistically significant if the p-value was less than 0.05. […]

5-HT6 receptor = 5-HT6 receptor (Homo sapiens, UniProt P50406); test: Radioligand binding assay for 5-HT6 receptor ([3H]-LSD displacement); parameters: expressed in transfected cells; host or cells: HEK-293 (cryopreserved membranes); settings: competitive replacement of [3H]-LSD; ±S.E.M.; read-out: 5-HT6R Ki
Procedure: To determine the affinity for 5-HT6, the cryopreserved membranes from HEK-293 cells stably transfected with the human recombinant 5-HT6 receptor were used.[40] Preparation of the tested compounds included preparation of stock solutions in DMSO (1 mM) and subsequent serial dilutions (10^–10–10^–5 M) of tested compounds in the appropriate buffer (50 mM Tris buffer, pH 7.4, 10 mM MgCl2, 0.5 mM ethylenediaminetetraacetic acid). The serial dilutions were acquired directly on a 96-well microplate. The reaction mix included 50 μL of appropriate concentration of tested molecule, 50 μL of [^3H]LSD 2.5/2.0 nM, and 150 μL of diluted membranes. The microplate containing the reaction mix was protected with a sealing tape and incubated for 60 min at 37 °C. Quenching of the reaction mixtire included: rapid filtration through UniFilter 96 GF/B filter microplate and rapid washes using 200 μL 50 mM assay buffer and vacuum manifold and 96-well pipettor. The collected microplates were dried overnight at 37 °C. The UniFilter bottoms were sealed, and then 30 μL of Betaplate Scint liquid scintillator (PerkinElmer) was added to each well. […] The obtained data were fit to a one-site curve-fitting equation using Prism 5 software (GraphPad Software), and the Ki values were determined using the Cheng–Prusoff equation. Radioligand binding was performed in duplicates.

female Wistar rats [4] = test system: female Wistar rats; parameters: method as in PMID 36603509; settings: not tested here; cited from earlier work
[5] = test system: human α1β2γ2-GABA-A receptors; test: Electrophysiological studies, automated patch clamp (QPatch16X), HEK293 cells; assay type: cell-based; settings: agonist mode, compound at 10 μM; current amplitude normalized to 10 μM GABA response; ±S.E.M.
Procedure: Electrophysiological studies were acquired using the QPatch16X automatic patch clamp platform (Sophion Biosciences) as described before.[42],[43] […] Before the assay, cells were detached from the culture flask by treating them with TrypLE Express solution (Life Technologies) and subsequently suspended in serum-free media. The cells were loaded into a 1.5 mL microtube on the automated electrophysiology instrument, which subsequently performed a spin-down using its built-in centrifuge. Following this, the cells were washed with Ringer’s extracellular solution. The cells were moved to the pipetting wells of a 16-channel planar patch chip plate (QPlate 16X) designed for single-use. A combined suction/voltage protocol was then applied to establish gigaseals. […] During the entire whole-cell recording, the holding potential was maintained at −90 mV. […] The intracellular solution contained 140 mM CsF, 1 mM EGTA, 5 mM CsOH, 10 mM HEPES, 20 mMNaCl (pH 7.2, 320 mOsm). […] The acquired data were examined with QPatch assay software (v5.0, Sophion Biosciences)[44] and are represented as the mean of three separated measurements performed on distinct cells. The efficacy of the tested molecules was determined by calculating the baseline-corrected ratio of the maximum current amplitudes elicited by the tested compounds and the reference agonist (T1-ATG/AG1-ATG or T2-ATG/AG1-ATG). The raw current recordings were standardized and presented as a percentage of the current amplitude evoked by the reference agonist, using the QPatch assay software (v5.0, Sophion Biosciences).

[6] = Parallel artificial membrane permeability assay (PAMPA); assay type: in vitro ADME; settings: tested at 10^–5 M, PAMPA Plate System Gentest
Procedure: To estimate the passive transport through cell membranes, we used specialized PAMPA Plate System Gentest acquired from Corning (Tewksbury, MA, USA). The assay was performed as described in the manufacturer’s protocol. The quantitative measurements of tested molecules in apical and basolateral wells were conducted using LC/MS (Waters ACQUITY TQD system with the TQ detector, Milford, USA) and a specific internal standard. The Pe permeability coefficient was calculated rendering the formulas described previously[47],[47] and compared to the reference compound sulpiride.

Sequence of 5-HT6 receptor (P50406 whole entry): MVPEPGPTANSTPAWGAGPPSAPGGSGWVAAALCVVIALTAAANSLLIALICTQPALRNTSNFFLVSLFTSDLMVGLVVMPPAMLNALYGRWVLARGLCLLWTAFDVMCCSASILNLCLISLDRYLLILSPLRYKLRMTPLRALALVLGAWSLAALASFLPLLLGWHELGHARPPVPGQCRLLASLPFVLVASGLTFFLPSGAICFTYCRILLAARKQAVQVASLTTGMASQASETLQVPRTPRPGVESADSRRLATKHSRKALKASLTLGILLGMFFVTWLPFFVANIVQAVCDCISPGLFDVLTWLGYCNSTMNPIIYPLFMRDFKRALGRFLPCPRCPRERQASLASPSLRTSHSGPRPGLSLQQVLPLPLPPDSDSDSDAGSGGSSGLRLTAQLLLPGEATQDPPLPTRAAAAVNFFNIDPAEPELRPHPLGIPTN

Ki (5-HT6 receptor): 8 ± 0.8 nM
SMILES: Cc1c(OCc2ccccc2)cccc1N1CCN(CCO)CC1 [Compound 6, 2-(4-(3-(Benzyloxy)-2-methylphenyl)piperazin-1-yl)ethan-1-ol]
immobility, climbing and swimming behaviors (female Wistar rats [1]): did not influence any of the above behaviors
mitochondrial membrane potential / morphology of microglia exposed to LPS (BV-2 microglia cells [2]): mitochondrial membrane potential was changed
LPS-induced IL-6 production (BV-2 microglia cells [3]): did not change
LPS-induced NO production (BV-2 microglia cells [3]): did not change
LPS-induced ROS production (BV-2 microglia cells [3]): did not change
LPS-induced TNF-α production (BV-2 microglia cells [3]): did not change

SMILES: NCCCC(=O)O [GABA]
antidepressant effects (female Wistar rats [4]): does not produce antidepressant effects
[%] of 10 μM GABA activity [5]: 100%

Papp [6]: 0.016 ×10⁻⁶ cm/s
SMILES: CCN1CCCC1CNC(=O)c1cc(S(N)(=O)=O)ccc1OC (stereo not shown) [sulpiride, reference compound]
